Target: KRAS G12C (Homo sapiens (Human), UniProt P01116, C118A/G12C)
Test: 2 h coupled exchange assay
Type: biochemical
Details: Avg 2 h Coupled exchange IC50, 2 h compound pre-incubation, SOS-mediated nucleotide exchange
Procedure: The term “2 h coupled exchange assay” or “20 h coupled exchange assay” as used herein refers to the assay described in the Section entitled “BIOLOGICAL EVALUATION.”

Chain of KRAS G12C (P01116 other isoform, or with tags, fused parts or gaps G12C/C118A): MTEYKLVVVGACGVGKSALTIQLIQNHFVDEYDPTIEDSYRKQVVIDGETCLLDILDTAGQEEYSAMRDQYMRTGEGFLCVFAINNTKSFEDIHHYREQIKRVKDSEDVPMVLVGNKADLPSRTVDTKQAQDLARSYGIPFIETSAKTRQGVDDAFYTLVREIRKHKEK

SMILES	IC50 [nM]
C=CC(=O)N1CC2(CCN(c3nc4c(c(-c5c(C)c(Cl)cc6[nH]ncc56)c3Cl)COC(C)(C)C4)C2)C1 [Example 2-92, 1-(6-(3-chloro-4-(6-chloro-5-methyl-1H-indazol-4-yl)-7,7-dimethyl-7,8-dihydro-5H-pyrano[4,3-b]pyridin-2-yl)-2,6-diazaspiro[3.4]octan-2-yl)-2-propen-1-one]	21
Cc1ccc2[nH]ncc2c1-c1c(C#N)c(N2CCC3(CN(C(=O)/C=C/CN(C)C)C3)C2)cc2c1COCC2 [Example 2-94, 6-(2-((2E)-4-(dimethylamino)-2-butenoyl)-2,6-diazaspiro[3.4]octan-6-yl)-8-(5-methyl-1H-indazol-4-yl)-3,4-dihydro-1H-2-benzopyran-7-carbonitrile]	610
C=CC(=O)N1CC2(CCN(c3cc4c(c(-c5c(C)ccc6cnn(C)c56)c3Cl)OCCC4)C2)C1 [Example 2-102, 1-(6-(7-chloro-8-(1,6-dimethyl-1H-indazol-7-yl)-3,4-dihydro-2H-chromen-6-yl)-2,6-diazaspiro[3.4]octan-2-yl)-2-propen-1-one]	70
C=CC(=O)N1CC2(CCN(c3nc4c(c(-c5cc(S(N)(=O)=O)ccc5C)c3C#N)CCC(C)(C)C4)C2)C1 [Example 2-106, 3-(3-cyano-7,7-dimethyl-2-(2-(2-propenoyl)-2,6-diazaspiro[3.4]octan-6-yl)-5,6,7,8-tetrahydro-4-quinolinyl)-4-methylbenzenesulfonamide]	288
C=CC(=O)N1CC2(CCN(c3nc4ccccc4c(-c4c(CC)ccc5[nH]ncc45)c3C#N)C2)C1 [Example 4, 4-(5-ethyl-1H-indazol-4-yl)-2-(2-(2-propenoyl)-2,6-diazaspiro[3.4]octan-6-yl)-3-quinolinecarbonitrile]	1050
C=CC(=O)N1CC2(CCN(c3nc4ccccc4c(-c4c(C)ccc5[nH]ncc45)c3C3CC3)C2)C1 [Example 6, 1-(6-(3-cyclopropyl-4-(5-methyl-1H-indazol-4-yl)quinolin-2-yl)-2,6-diazaspiro[3.4]octan-2-yl)prop-2-en-1-one]	3500
C=CC(=O)N1CC2(CCN(c3nc4ccccc4c(-c4c(C)ccc5[nH]ncc45)c3C)C2)C1 [Example 8, 1-(6-(3-Methyl-4-(5-methyl-1H-indazol-4-yl)quinolin-2-yl)-2,6-diazaspiro[3.4]octan-2-yl)prop-2-en-1-one]	1270
C=CC(=O)N1CC2(CCN(c3nc4c(c(-c5ccc(F)c6cc[nH]c56)c3C#N)COC(C)(C)C4)C2)C1 [Example 12-3, 4-(4-fluoro-1H-indol-7-yl)-7,7-dimethyl-2-(2-(2-propenoyl)-2,6-diazaspiro[3.4]octan-6-yl)-7,8-dihydro-5H-pyrano[4,3-b]pyridine-3-carbonitrile]	623
C=CC(=O)N1CC2(CCN(c3nc4c(c(-c5cccc6cc(N)ccc56)c3C#N)COC(C)(C)C4)C2)C1 [Example 12-4, 4-(6-amino-1-naphthalenyl)-7,7-dimethyl-2-(2-(2-propenoyl)-2,6-diazaspiro[3.4]octan-6-yl)-7,8-dihydro-5H-pyrano[4,3-b]pyridine-3-carbonitrile]	818
C=CC(=O)N1CC2(CCN(c3nc4c(c(-c5ccc(Cl)c6ccn(C)c56)c3C#N)COC(C)(C)C4)C2)C1 [Example 12-5, 4-(4-chloro-1-methyl-1H-indol-7-yl)-7,7-dimethyl-2-(2-(2-propenoyl)-2,6-diazaspiro[3.4]octan-6-yl)-7,8-dihydro-5H-pyrano[4,3-b]pyridine-3-carbonitrile]	463
C=CC(=O)N1CC2(CCN(c3nc4c(c(-c5ccc(Cl)c6cc[nH]c56)c3C#N)COC(C)(C)C4)C2)C1 [Example 12-6, 4-(4-chloro-1H-indol-7-yl)-7,7-dimethyl-2-(2-(2-propenoyl)-2,6-diazaspiro[3.4]octan-6-yl)-7,8-dihydro-5H-pyrano[4,3-b]pyridine-3-carbonitrile]	213

— patent US20240059703A1 (AMGEN INC., priority 2021, published 2024)
